Test results as given in patent US12059420B2 (BRISTOL-MYERS SQUIBB COMPANY, priority 2018, dated 2024).
pIC50: −log10 of the molar value. Counter-ions that a name gives are not always drawn.

Molecular target: T1, human IDO1 (Homo sapiens, UniProt P14902)
T1 construct: expressed in transfected cells
Experiment: IDO inhibition assay in HEK293 cells stably expressing human IDO1 (kynurenine production, Ehrlich reagent, absorbance 490 nm)
Format: cell-based
Conditions: 20 hours incubation with compound, 500 nM reference standard = 100% inhibition, read-out: IDO1 HEK Human IC50
Outline: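 Kynurenine output of stably IDO1-transfected HEK293 cells was measured by absorbance at 490 nm after mixing supernatant with 0.2% Ehrlich reagent, following TCA stop (0.2% final, 50° C., 30 min). Cells were incubated 20 hours with compound. Inhibition was scaled between DMSO and 500 nM reference standard.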

T1 sequence (P14902 whole entry): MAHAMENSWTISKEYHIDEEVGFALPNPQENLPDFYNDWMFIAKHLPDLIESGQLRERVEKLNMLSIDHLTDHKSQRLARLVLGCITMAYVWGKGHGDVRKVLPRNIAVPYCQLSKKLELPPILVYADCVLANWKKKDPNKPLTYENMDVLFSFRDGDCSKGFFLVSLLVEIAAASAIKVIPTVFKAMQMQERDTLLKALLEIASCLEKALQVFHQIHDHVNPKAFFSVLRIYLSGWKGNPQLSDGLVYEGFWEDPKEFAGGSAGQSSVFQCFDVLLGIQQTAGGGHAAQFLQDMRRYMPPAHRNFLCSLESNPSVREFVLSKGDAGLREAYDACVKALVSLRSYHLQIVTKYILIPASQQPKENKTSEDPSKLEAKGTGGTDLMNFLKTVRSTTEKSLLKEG

Row | pIC50 | Structure (SMILES)
1 | 6.44 | Cc1ccc(NC(=O)Nc2cc(-c3ccccc3-c3nnn[nH]3)nc(N(CC(C)C)C3CCCCC3)c2)cc1 [Example 286, 1-(2-(2-(1H-Tetrazol-5-yl)phenyl)-6-(cyclohexyl(isobutyl)amino)pyridin-4-yl)-3-(p-tolyl)urea]
2 | 5.87 | CCCN(Cc1ccccc1)c1cc(NC(=O)Nc2ccc(C)nc2)cc(-c2ccccc2-c2nnn[nH]2)n1 [Example 267, 1-(2-(2-(1H-tetrazol-5-yl)phenyl)-6-(benzyl(propyl)amino)pyridin-4-yl)-3-(6-methylpyridin-3-yl)urea]
3 | 7.76 | CC(C)CN(Cc1ccc(F)cc1)c1cc(Nc2cccc(C(F)F)n2)cc(-c2ccccc2-c2nnn[nH]2)n1 [Example 47, 6-(2-(1H-tetrazol-5-y1)phenyl)-N4-(6-(difluoromethyl)pyridin-2-yl)-N2-(4-fluorobenzyl)-N2-isobutylpyridine-2,4-diamine]
4 | 8.15 | CCCN(Cc1ccccc1)c1cc(NC(=O)Nc2ccc(Cl)cc2F)cc(-c2ccccc2-c2noc(=O)[nH]2)n1 [Example 12, 1-(2-(benzyl(propyl)amino)-6-(2-(5-oxo-4,5-dihydro-1,2,4-oxadiazol-3-yl)phenyl)pyridin-4-yl)-3-(4-chloro-2-fluorophenyl)urea]
5 | 6.38 | CCCN(CC1CC1)c1cc(NC(=O)Cc2ccc(F)cc2F)cc(-c2ccccc2-c2nnn[nH]2)n1 [Example 70, N-(2-(2-(1H-tetrazol-5-yl)phenyl)-6-((cyclopropylmethyl)(propyl)amino)pyridin-4-yl)-2-(2,4-difluorophenyl)acetamide, TFA]
6 | 5.28 | CCCN(Cc1ccccc1)c1cc(NC(=O)NC2CCCCC2)cc(-c2ccccc2-c2nnn[nH]2)n1 [Example 300]
7 | 7.45 | CC(C)CN(Cc1ccc(F)cc1)c1cc(Nc2ncc(F)cn2)cc(-c2ccccc2-c2nnn[nH]2)n1 [Example 44, 6-(2-(1H-tetrazol-5-yl)phenyl)-N2-(4-fluorobenzyl)-N4-(5-fluoropyrimidin-2-yl)-N2-isobutylpyridine-2,4-diamine, TFA]
8 | 6.46 | CC(C)CN(Cc1ccccc1)c1cc(NC(=O)Cc2ccc(F)cc2)cc(-c2ccccc2-c2nnn[nH]2)n1 [Example 80, N-(2-(2-(1H-tetrazol-5-yl)phenyl)-6-(benzyl(isobutyl)amino)pyridin-4-yl)-2-(4-fluorophenyl)acetamide, TFA]
9 | 6.59 | Cc1ccc(CC(=O)Nc2cc(-c3ccccc3-c3nnn[nH]3)nc(N3CCc4ccccc4C3)n2)cc1 [Example 94, N-(6-(2-(1H-tetrazol-5-yl)phenyl)-2-(3,4-dihydroisoquinolin-2(1H)-yl)pyrimidin-4-yl)-2-(p-tolyl)acetamide]
